Assay results taken from US8466186B2, “Compounds” (Boehringer Ingelheim International GmbH, priority 2010, dated 2013).

Assays:
[1] = target: T1, recombinant human mPGES-1 (Homo sapiens, UniProt O14684); experiment: Assay B: mPGES-1 enzyme assay (modified); type: biochemical; conditions: biological assay B (modified); PGH2 final conc. 2 μM; read-out: mPGES-1 inhibitory effect IC50
T1 construct: made in house; host or cells: Rosetta E. coli (membrane/microsome fraction)
T1 sequence (O14684 1-152): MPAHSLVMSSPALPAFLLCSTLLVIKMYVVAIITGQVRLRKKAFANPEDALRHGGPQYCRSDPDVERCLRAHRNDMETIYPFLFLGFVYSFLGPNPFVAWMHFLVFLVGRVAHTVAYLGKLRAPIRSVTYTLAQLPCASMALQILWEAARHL
Protocol: Assay B: mPGES-1 Enzyme Assay (Modified)
Microsomes from Rosetta E. coli bacteria expressing recombinant human mPGES-1 can be derived as described below:
Inoculate 5 ml LB with Ampicilin (50 μg/ml) and Chloramphenicol (34 μg/ml) with bacteria from freeze culture. Incubate 8 h at 37° C. with 200 rpm. Thereafter, inoculate 500-1000 ml LB containing Ampicilin and Chloramphenicol with the 5 ml on culture and grow to OD640 of 0.8-1.0. Chill the culture to +4° C. before induction. Induce the culture with IPTG at a final concentration of 400 μM. Express the protein at room temp 18-23° C. with 200 rpm shaking overnight.
The following steps can be performed on the following day: • 1. Spin down the cells in 250 ml centrifuge flasks for 15 min at 7000 rpm (Beckmann Coulte Avanti J-E centrifuge) • 2. Dissolve the pellet from 250 ml culture in 12.5 ml homogenization buffer • 3. (15 mM Tris-HCL pH8, 1 mM EDTA pH8, […], 2.5 mM GSH, 1 Tablet Protease inhibitor per 50 ml buffer) • 4. Disintegrate the cells by sonication, 5×10 seconds at 48% amplitude of a 750 W sonifier • 5. Add 2.5 ml MgCl2 (100 mM) and DNase 12.5 μl (0.8 mg/ml) and incubate on ice for 30 min • 6. Spin down the bacteria debris and save the supernatant, 7000 rpm for 15 min • 7. Isolate the protein containing membranes in the supernatant by ultracentrifugation 120000×g for 2 hour at 4° C. (Sorvall T880 rotor). • 8. Discard the supernatant and dissolve the pellet in 20 mM Potassium phosphate buffer pH7.4 (KH2PO4 and K2HPO4) buffer by sonication (5×10 s, 30% of a 50 W sonifier) and aliquot the enzyme and store aliquots at −80° C.
Before each experiment is performed an aliquot of the enzyme is thawed and it can then be dissolved in 0.1 M Potassium phosphate buffer pH7.4 (KH2PO4 and K2HPO4) buffer containing 2.5 mM GSH.
The aim of this assay is to determine the affinity of a test compound for the mPGES-1 enzyme.
47 μl of recombinant human mPGES-1 (˜0.5 μg protein/well) containing microsomal suspension in a buffer containing GSH, (2.5 mmol/L L-Glutathione reduced, dissolved in 0.1 mol/L Phosphat Buffer pH 7.4) is dispensed in a 384-well plate and thereafter 1 μl of the test compound(s) is/are added and incubated for 25 minutes at room temperature. The enzyme reaction is started by the addition of 2 ul PGH2 (final conc. 2 μM) dissolved in water-free Diglyme. After 60 seconds the reaction is terminated by addition of a stop solution containing FeCl2 (10 μL 0.074 mol/l FeCl2). The samples are diluted between 1:25 in PBS (Phosphate Buffered Saline). 10 μl of the diluted samples are transferred to 384-well low volume plate. In order to quantify the amount of PGE2 that has been formed, a homogenous time resolved fluorescent (HTRF) detecting of PGE2 has been performed using a commercially available kit from Cisbio according to the manufactures recommendation. This HTRF-based assay has been described in detail (see: Goedken et al., J Biomol Screen, 2008, 13(7), 619-625). Briefly, the diluted samples are mixed with 5 μl PGE2-d2 conjungate and 5 μl anti-PGE2 cryptate conjungate. After an incubation period of the plates overnight, the fluorescence is measured by the use of an appropriate microplate reader.
The fluorescence of Europium cryptate (maxex=307 nm, maxem=620 nm) and d2-PGE2 (maxex=620 nm, maxem=665 nm) are measured.
The extent of the specific HTRF is measured as a ratio of the emission intensity at 665 nm vs. that at 620 nm at an excitation puls of 320 nm. The quantification plate contains also wells with different concentrations of PGE2 as calibration curve for the calculation of the PGE2 concentrations from the HTRF ratio values.
From all mPGES enzyme assay the background is subtracted and the IC50 is calculated over a nonlinear regression with conventional software.

[2] = target: T1, recombinant human mPGES-1; experiment: Assay A: mPGES-1 enzyme assay (HTRF detection of PGE2); type: biochemical; conditions: biological assay A; microsomes from E. coli expressing recombinant human mPGES-1; read-out: mPGES-1 inhibitory effect IC50
In short: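 Human mPGES-1 in E. coli (Rosetta) microsomes, in 0.1 M KP pH 7.4 with 2.5 mM GSH, preincubated with inhibitor 25 min at room temperature. PGH2 substrate added for 1 min, then stopped with acidified FeCl2. PGE2 formed measured by HTRF after 750-fold dilution.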

Row | Structure (SMILES) | IC50 [1] [nM] | IC50 [2] [nM]
1 | CC(C)(C)C(=O)NCc1ccc(Cl)c(Nc2nc3cc(C(F)(F)F)c(N4CCC(C(F)(F)F)CC4)cc3[nH]2)c1Cl [Example 61, N-{2,4-Dichloro-3-[5-trifluoromethyl-6-(4-trifluoromethyl-piperidin-1-yl)-1H-benzimidazol-2-ylamino]benzyl}-2,2-dimethyl-propionamide] | 5 | 
2 | Cn1c(Nc2cc(CNC(=O)C3(C(F)(F)F)CC3)ccc2Cl)nc2cc(Cl)c(N3CCN(CC(F)(F)F)CC3)cc21 [Example 92] | 39 | 
3 | Cn1c(Nc2c(F)ccc(CNC(=O)C(C)(C)C)c2F)nc2cc(Cl)c(N3CCC(C(F)(F)F)CC3)cc21 [Example 70, N-{2,4-Difluoro-3-[5-chloro-1-methyl-6-(4-trifluoromethyl-piperidin-1-yl)-1H-benzimidazol-2-ylamino]-benzyl}-2,2-dimethyl-propionamide] | 6.5 | 
4 | Cn1c(Nc2c(Cl)ccc(CNC(=O)C(C)(C)C)c2F)nc2cc(Cl)c(N3CCC(F)CC3)cc21 [Example 33, N-{2-Fluoro-4-chloro-3-[5-chloro-1-methyl-6-(4-fluoro-piperidin-1-yl)-1H-benzimidazol-2-ylamino]-benzyl}-2,2-dimethyl-propionamide] | 3 | 
5 | Cn1c(Nc2c(Cl)ccc(CNC(=O)C(C)(C)C)c2Cl)nc2cc(Cl)c(N3CCC(C(F)(F)F)C3)cc21 (stereo not drawn) [Example 59] | 2 | 
6 | CC(C)(C)C(=O)NCc1ccc(Cl)c(Nc2nc3cc(Cl)c(N4CCC(C(F)(F)F)CC4)cc3[nH]2)c1Cl [Example 40, N-{2,4-Dichloro-3-[5-chloro-6-(4-trifluoromethyl-piperidin-1-yl)-1H-benzimidazol-2-ylamino]-benzyl}-2,2-dimethyl-propionamide] | 5.7 | 
7 | Cn1c(Nc2c(Cl)ccc(CNC(=O)C(C)(C)C)c2Cl)nc2cc(Cl)c(N3CCCC(C(F)(F)F)C3)cc21 (stereo not drawn) [Example 53] | 3.5 | 
8 | Cn1c(Nc2c(Cl)ccc(CNC(=O)OC(C)(C)C)c2Cl)nc2cc(Cl)c(N3CCCC(C(F)(F)F)C3)cc21 (stereo not drawn) [Example 51] | 23 | 
9 | CN(CC(C)(C)O)c1cc2c(cc1Cl)nc(Nc1c(Cl)ccc(CNC(=O)C(C)(C)C)c1F)n2C [Example 37] | 7.8 | 
10 | Cn1c(Nc2cc(CNC(=O)C3(C(F)(F)F)CC3)ccc2F)nc2cc(Cl)c(N3CCC(F)(F)CC3)cc21 [Example 112] |  | 22
11 | Cn1c(Nc2cc(CNC(=O)C3CC3)ccc2C(F)(F)F)nc2cc(Cl)c(N3CCC(C(F)(F)F)CC3)cc21 [Example 102] |  | 2.4
12 | Cn1c(Nc2cc(CNS(=O)(=O)C(C)(C)C)ccc2Cl)nc2cc(Cl)c(N3CCN(c4ccc(C(F)(F)F)cc4)CC3)cc21 [Example 100] |  | 7.7
13 | Cn1c(Nc2cc(CNC(=O)C3(C(F)(F)F)CC3)ccc2Cl)nc2cc(Cl)c(N3CCC(C(F)(F)F)CC3)cc21 [Example 71, N-{4-Chloro-3-[5-chloro-1-methyl-6-(4-trifluoromethyl-piperidin-1-yl)-1H-benzimidazol-2-ylamino]benzyl}-1-trifluoromethyl-cyclopropaneamide] |  | 2.5
14 | CC(C)N1CCN(c2cc3c(cc2Cl)nc(Nc2cc(CNC(=O)C4(C(F)(F)F)CC4)ccc2Cl)n3C)CC1 [Example 125] |  | 32
15 | Cn1c(Nc2cc(CNC(=O)C(C)(N)C(F)(F)F)ccc2Cl)nc2cc(Cl)c(N3CCCC(C(F)(F)F)C3)cc21 (stereo not drawn) [Example 1, 2-Amino-N-{4-chloro-3-[5-chloro-1-methyl-6-(3-(trifluoromethyl)piperidin-1-yl)-1H-benzo[d]imidazol-2-ylamino]benzyl}-3,3,3-trifluoro-2-methylpropanamide] |  | 2.5
16 | Cn1c(Nc2cc(CNC(=O)C(C)(C)C(F)(F)F)ccc2Cl)nc2cc(Cl)c(N3CCC(c4ccccc4)CC3)cc21 [Example 97] | 3.1 | 
17 | CC(C(=O)NCc1ccc(C(F)(F)F)c(Nc2nc3cc(Cl)c(N4CCC(C(F)(F)F)CC4)cc3n2C)c1)C(F)(F)F (stereo not drawn) [Example 105, N-{4-Trifluoromethyl-3-[5-chloro-1-methyl-6-(4-trifluoromethyl-piperidin-1-yl)-1H-benzimidazol-2-ylamino]-benzyl}-3,3,3-trifluoro-2-methyl-propanamide] |  | 3.9
18 | Cn1c(Nc2cc(CNC(=O)C3(C(F)(F)F)CC3)ccc2C(F)(F)F)nc2cc(Cl)c(N3CCC(C(F)(F)F)CC3)cc21 [Example 101, N-{4-Trifluoromethyl-3-[5-chloro-1-methyl-6-(4-trifluoromethyl-piperidin-1-yl)-1H-benzimidazol-2-ylamino]-benzyl}-1-trifluoromethyl-cyclopropanamide] |  | 2.8
19 | Cn1c(Nc2cc(CNC(=O)C3(C(F)(F)F)CC3)ccc2Cl)nc2cc(Cl)c(N3CCN(c4ccc(C(F)(F)F)cc4)CC3)cc21 [Example 83, N-{4-Chloro-3-[5-chloro-1-methyl-6-(4-(4-trifluoromethylphenyl)-piperazin-1-yl)-1H-benzimidazol-2-ylamino]-benzyl}-1-trifluoromethyl-cyclopropanamide] |  | 1.3
20 | COC1CCN(c2cc3c(cc2Cl)nc(Nc2cc(CNC(=O)C4(C(F)(F)F)CC4)ccc2Cl)n3C)CC1 [Example 77] |  | 10
21 | Cn1c(Nc2cc(CNC(=O)C3(C(F)(F)F)CC3)ccc2Cl)nc2cc(Cl)c(N3CCC(F)(F)CC3)cc21 [Example 79] |  | 2.4
22 | CC(C)(C)C(=O)NCc1ccc(Cl)c(Nc2nc3cc(Cl)c(N4CCC(F)CC4)cc3[nH]2)c1F [Example 48] | 9 | 
23 | O=C(NCc1ccc(Cl)c(Nc2nc3cc(Cl)c(N4CCOCC4)cc3[nH]2)c1)C1(C(F)(F)F)CC1 [Example 128] |  | 172
24 | CC(C)(C)C(=O)NCc1ccc(Cl)c(Nc2nc3cc(Cl)c(N4CCCC(C(F)(F)F)C4)cc3[nH]2)c1Cl (stereo not drawn) [Example 52] | 2.2 | 
25 | CC(C)(C)C(=O)NCc1ccc(Cl)c(Nc2nc3cc(C#N)c(N4CCC(C(F)(F)F)CC4)cc3[nH]2)c1Cl [Example 131] | 5 | 
26 | Cn1c(Nc2cc(CNC(=O)c3c(F)cccc3C(F)(F)F)ccc2Cl)nc2cc(Cl)c(N3CCCC(C(F)(F)F)C3)cc21 (stereo not drawn) [Example 69] |  | 9
27 | CCCC(C)(C)C(=O)NCc1ccc(Cl)c(Nc2nc3cc(N4CCCC4)ccc3[nH]2)c1 [Example 18] |  | 79
28 | Cn1c(Nc2cc(CNC(=O)C3(C(F)(F)F)CC3)ccc2Cl)nc2cc(Cl)c(N3CCC(c4ccc(F)cc4)CC3)cc21 [Example 91] |  | 3.6
29 | Cn1c(Nc2cc(CNC(=O)C3(C(F)(F)F)CC3)ccc2Cl)nc2cc(C#N)c(N3CCC(C(F)(F)F)CC3)cc21 [Example 82, N-{4-Chloro-3-[5-cyano-1-methyl-6-(4-trifluoromethyl-piperidin-1-yl)-1H-benzimidazol-2-ylamino]-benzyl}-1-trifluoromethyl-cyclopropanamide] |  | 1.7
30 | Cn1c(Nc2cc(CNC(=O)C3(C)CCCCC3)ccc2Cl)nc2ccc(N3CCCC3)cc21 [Example 123] |  | 29
